# Earlier results, collected in article PMC3066546, “Development of modified nucleosides that have supremely high anti-HIV activity and low toxicity and prevent the emergence of resistant HIV mutants” (Proceedings of the Japan Academy. Series B, Physical and …, 2011).
# Where two headings read alike, the source gives them in different places.
# What was measured:
# [1] = tested on: HIV-1LAI; conditions: MTT assay, MT-4 cells
# [2] = tested on: MT-4 cells
# [3] = tested on: HIV-1wild; design: method as in PMID 18487070; conditions: Table 7; read-out: Anti-HIV activity (MAGI assay, µg) HIV-1wild
# [4] = tested on: HIV-1MDR; design: method as in PMID 18487070; conditions: Table 7; read-out: Anti-HIV activity (MAGI assay, µg) HIV-1MDR
# [5] = tested on: HIV-1M184V; design: method as in PMID 18487070; conditions: Table 7; read-out: Anti-HIV activity (MAGI assay, µg) HIV-1M184V
# [6] = tested on: HXB2 (wild type HIV); design: method as in PMID 11087576, PMID 11577734, PMID 15200030; conditions: MAGI assay
# [7] = tested on: KH65R drug-resistant HIV; design: method as in PMID 11087576, PMID 11577734, PMID 15200030; conditions: MAGI assay
# [8] = tested on: L74V drug-resistant HIV; design: method as in PMID 11087576, PMID 11577734, PMID 15200030; conditions: MAGI assay
# [9] = tested on: 41/215 drug-resistant HIV; design: method as in PMID 11087576, PMID 11577734, PMID 15200030; conditions: MAGI assay
# [10] = tested on: M184V drug-resistant HIV; design: method as in PMID 11087576, PMID 11577734, PMID 15200030; conditions: MAGI assay
# [11] = tested on: M184I drug-resistant HIV; design: method as in PMID 11087576, PMID 11577734, PMID 15200030; conditions: MAGI assay
# [12] = tested on: 41/69/ 125/SG drug-resistant HIV; design: method as in PMID 11087576, PMID 11577734, PMID 15200030; conditions: MAGI assay
# [13] = tested on: MDR (multidrug-resistant HIV); conditions: MAGI assay
# [14] = tested on: Hela cells
# [15] = tested on: ICR mice; conditions: for Mortality (%): six-week-old ICR male mice
# [16] = tested on: HIV; design: method as in PMID 7764216; conditions: Table 1; for EC50: anti-HIV
# [17] = cytotoxic concentration, Table 1
smiles,measurement,setting,value
[N-]=[N+]=N[C@]1(CO)O[C@@H](n2cnc3c(N)ncnc32)C[C@@H]1O [4′-C-azido-2′-deoxyadenosine],EC50,[1]; Table 2,130 nM
same,CC50,[2]; Table 2,50 µM
[N-]=[N+]=N[C@]1(CO)O[C@@H](n2ccc(N)nc2=O)C[C@@H]1O [4′-C-azido-2′-deoxycytidine],EC50,[1]; Table 2,4 nM
same,CC50,[2]; Table 2,0.21 µM
Cc1cn([C@H]2C[C@H](O)[C@](CO)(CN=[N+]=[N-])O2)c(=O)[nH]c1=O [4′-C-azidomethylthymidine],EC50,[1]; Table 2,2100 nM
same,CC50,[2]; Table 2,333 µM
Cc1cn([C@H]2C[C@H](O)[C@](CO)(N=[N+]=[N-])O2)c(=O)[nH]c1=O [4′-C-azidothymidine],EC50,[1]; Table 2,10 nM
same,CC50,[2]; Table 2,8 µM
N#C[C@]1(CO)O[C@@H](n2ccc(N)nc2=O)C[C@@H]1O [4′-C-cyano-2′-deoxycytidine],EC50,[1]; Table 2,1.2 nM
same,CC50,[2]; Table 2,0.17 µM
Cc1cn([C@H]2C[C@H](O)[C@@](C#N)(CO)O2)c(=O)[nH]c1=O [4′-C-cyanothymidine],EC50,[1]; Table 2,2 nM
same,CC50,[2]; Table 2,1 µM
CC[C@]1(CO)O[C@@H](n2cc(C)c(=O)[nH]c2=O)C[C@@H]1O [4′-C-ethylthymidine],EC50,[1]; Table 2,> 400000 nM
C#C[C@]1(CO)O[C@@H](n2cc(C)c(=O)[nH]c2=O)[C@@H](O)[C@@H]1O [4′-C-ethynylarabinofuranosylthymine],EC50,[1]; Table 2,119000 nM
same,CC50,[2],> 400 µM
C#C[C@]1(CO)O[C@@H](n2cc(C)c(=O)[nH]c2=O)C[C@@H]1O [4′-C-ethynylthymidine],EC50,[1]; Table 2,830 nM
same,CC50,[2]; Table 2,> 400 µM
Nc1ccn([C@H]2C[C@H](O)[C@](CO)(CF)O2)c(=O)n1 [4′-C-fluoromethyl-2′-deoxycytidine],EC50,[1]; Table 2,6.8 nM
same,CC50,[2]; Table 2,0.12 µM
Cc1cn([C@H]2C[C@H](O)C(CO)(CO)O2)c(=O)[nH]c1=O [4′-C-hydroxymethylthymidine],EC50,[1]; Table 2,7000 nM
same,CC50,[2]; Table 2,> 400 µM
CO[C@]1(CO)O[C@@H](n2cc(C)c(=O)[nH]c2=O)C[C@@H]1O [4′-C-methoxythymidine],EC50,[1]; Table 2,8490 nM
same,CC50,[2]; Table 2,200 µM
CCC[C@]1(CO)O[C@@H](n2cc(C)c(=O)[nH]c2=O)C[C@@H]1O [4′-C-propylthymidine],EC50,[1]; Table 2,> 100000 nM
same,CC50,[2]; Table 2,> 100 µM
C=C[C@]1(CO)O[C@@H](n2cc(C)c(=O)[nH]c2=O)C[C@@H]1O [4′-C-vinylthymidine],EC50,[1]; Table 2,> 400000 nM
same,CC50,[2]; Table 2,> 400 µM
"C#C[C@]1(CO)O[C@@H](n2cnc3c(N)nc(Cl)nc32)C[C@@H]1O [4′Ed2ClA, 2′-deoxy-4′-C-ethynyl-2-chloroadenosine]",EC50,[3],1.9 nM
same,EC50,[4],8.4 nM
same,EC50,[5],0.01 µM
"C#C[C@@]1(CO)C=C[C@H](n2cnc3c(N)nc(F)nc32)O1 [4′Ed42FA, 2′,3′-didehydrodideoxy-4′-C-ethynyl-2-fluoroadenosine]",EC50,[3],800 nM
same,EC50,[4],150 nM
same,EC50,[5],1.8 µM
"C#C[C@]1(CO)O[C@@H](n2cnc3c(O)ncnc32)C[C@@H]1O [4′EdI, 2′-deoxy-4′-C-ethynylinosine]",EC50,[1]; Table 3,150 nM
same,EC50,[6],810 nM
same,EC50,[7],250 nM
same,EC50,[8],610 nM
same,EC50,[9],1300 nM
same,EC50,[10],1600 nM
same,EC50,[11],1500 nM
same,EC50,[12],2.2 µM
same,EC50,[13],510 nM
same,CC50,[2]; Table 3,216 µM
same,CC50,"[14]; Table 4, Hela cells",> 200 µM
same,Mortality (%),"[15]; intraveneous administration, 1 mg/Kg",0%
same,Mortality (%),"[15]; intraveneous administration, 3 mg/Kg",0%
same,Mortality (%),"[15]; intraveneous administration, 10 mg/Kg",0%
same,Mortality (%),"[15]; intraveneous administration, 100 mg/Kg",0%
same,Mortality (%),"[15]; oral administration, 1 mg/Kg",0%
same,Mortality (%),"[15]; oral administration, 3 mg/Kg",0%
same,Mortality (%),"[15]; oral administration, 10 mg/Kg",0%
same,Mortality (%),"[15]; oral administration, 100 mg/Kg",0%
same,survival of mice,"[15]; single dosage of 3–100 mg kg−1, both intravenous and oral",All eight mice survived
"C#C[C@@]1(CO)CC[C@H](n2cnc3c(N)nc(F)nc32)O1 [4′Edd2FA, 2′,3′-dideoxy-4′-C-ethynyl-2-fluoroadenosine]",EC50,[3],940 nM
same,EC50,[4],8700 nM
same,EC50,[5],97 µM
"C[C@]1(CO)O[C@@H](n2cnc3c(N)ncnc32)C[C@@H]1O [C00001 Ad, 4′-C-methyl-2′-deoxyadenosine]",SI (CC50/EC50),[16],1.0
same,EC50,[16],2.6 µM
same,EC50,[1]; Table 2,2600 nM
same,CC50,[17],2.6 µM
same,CC50,[2]; Table 2,2.6 µM
"C[C@]1(CO)O[C@@H](n2ccc(N)nc2=O)C[C@@H]1O [C00001 Cy, 4′-C-methyl-2′-deoxycytidine]",SI (CC50/EC50),[16],1.8
same,EC50,[16],0.072 µM
same,EC50,[1]; Table 2,15 nM
same,EC50,[6],5.8 nM
same,EC50,[7],7.1 nM
same,EC50,[8],6.2 nM
same,EC50,[10],200 nM
same,EC50,[11],740 nM
same,EC50,[13],3.3 nM
same,CC50,[17],0.13 µM
same,CC50,[2]; Table 2,1 µM
same,CC50,"[14]; Table 4, Hela cells",> 200 µM
"Cc1cn([C@H]2C[C@H](O)[C@@](C)(CO)O2)c(=O)[nH]c1=O [C00001 Th, 4′-C-methylthymidine]",EC50,[16],7.2 µM
same,EC50,[1]; Table 2,7200 nM
same,CC50,[17],104 µM
same,CC50,[2]; Table 2,104 µM
C[C@@]1(CO)C=C[C@H](n2cnc3c(N)ncnc32)O1 [C00002 Ad],SI (CC50/EC50),[16],∼1
same,EC50,[16],> 500 µM
same,CC50,[17],> 500 µM
C[C@@]1(CO)C=C[C@H](n2ccc(N)nc2=O)O1 [C00002 Cy],EC50,[16],350 µM
same,CC50,[17],350 µM
Cc1cn([C@H]2C=C[C@@](C)(CO)O2)c(=O)[nH]c1=O [C00002 Th],SI (CC50/EC50),[16],16
same,EC50,[16],21 µM
same,CC50,[17],330 µM
C[C@@]1(CO)CC[C@H](n2cnc3c(N)ncnc32)O1 [C00003 Ad],SI (CC50/EC50),[16],13
same,EC50,[16],30 µM
same,CC50,[17],400 µM
C[C@@]1(CO)CC[C@H](n2ccc(N)nc2=O)O1 [C00003 Cy],SI (CC50/EC50),[16],1
same,EC50,[16],27 µM
same,CC50,[17],27 µM
Cc1cn([C@H]2CC[C@@](C)(CO)O2)c(=O)[nH]c1=O [C00003 Th],SI (CC50/EC50),[16],∼1
same,EC50,[16],> 500 µM
same,CC50,[17],> 500 µM
N#C[C@]1(CO)O[C@@H](n2cnc3c(N)nc(N)nc32)C[C@@H]1O [C00004 2AA],EC50,[1]; Table 3,0.79 nM
same,CC50,[2]; Table 3,0.034 µM
N#C[C@]1(CO)O[C@@H](n2cnc3c(N)ncnc32)C[C@@H]1O [C00004 A],EC50,[1]; Table 3,51 nM
same,CC50,[2]; Table 3,12 µM
N#C[C@]1(CO)O[C@@H](n2cnc3c(=O)[nH]c(N)nc32)C[C@@H]1O [C00004 G],EC50,[1]; Table 3,0.188 nM
same,CC50,[2]; Table 3,0.034 µM
N#C[C@]1(CO)O[C@@H](n2cnc3c(O)ncnc32)C[C@@H]1O [C00004 I],EC50,[1]; Table 3,51 nM
same,CC50,[2]; Table 3,23 µM
"Nc1ccn([C@@H]2CS[C@H](CO)O2)c(=O)n1 [Compound 3TC, 2′,3′-dideoxy-3′-thia-L-cytidine, reference compound]",EC50,[1]; Table 2,100 nM
same,EC50,[6],710 nM
same,EC50,[10],> 100000 nM
same,EC50,[11],> 100000 nM
same,EC50,[12],9.9 µM
same,EC50,[13],1100 nM
same,EC50,[3],1000 nM
same,EC50,[4],2800 nM
same,EC50,[5],> 100 µM
same,CC50,[2],> 100 µM
same,CC50,[14],> 100 µM
C#C[C@]1(CO)O[C@@H](n2ccc(N)nc2=O)C[C@@H]1O [L-4′-C-ethynyl-2′-deoxycytidine],EC50,[1]; Table 2,> 400000 nM
"Cc1cn([C@H]2C=C[C@@H](CO)O2)c(=O)[nH]c1=O [d4T, 2′,3′-didehydro-3′-deoxythymidine, reference compound]",SI (CC50/EC50),[16],>120
same,EC50,[16],4.1 µM
same,EC50,[3],7600 nM
same,EC50,[4],64000 nM
same,EC50,[5],5.6 µM
same,CC50,[17],> 500 µM
"Nc1ccn([C@H]2CC[C@@H](CO)O2)c(=O)n1 [ddC, reference compound]",EC50,[6],200 nM
same,EC50,[7],3000 nM
same,EC50,[8],1500 nM
same,EC50,[10],2200 nM
same,EC50,[12],1.3 µM
same,EC50,[13],5500 nM
same,CC50,[14],> 100 µM
"O=c1[nH]cnc2c1ncn2[C@H]1CC[C@@H](CO)O1 [ddI, reference compound]",EC50,[6],3900 nM
same,EC50,[7],12700 nM
same,EC50,[8],19500 nM
same,EC50,[9],3600 nM
same,EC50,[10],10100 nM
same,EC50,[12],12.2 µM
same,EC50,[13],25000 nM
same,CC50,[14],> 100 µM
